Results taken from ChEMBL document CHEMBL1138749, “N-Phenyl-4-pyrazolo[1,5-b]pyridazin-3-ylpyrimidin-2-amines as potent and selective inhibitors of glycogen synthase kinase 3 with good cellular efficacy” (J Med Chem, 2004).

What was measured:
[1] = target: Cyclin-dependent kinase 2 (Homo sapiens, UniProt P24941)
[2] = target: Glycogen synthase kinase-3 beta (Rattus norvegicus, UniProt P18266); test: Effective concentration to increase glycogen deposition in rat skeletal muscle L6 myoblast cells; format: functional, cell-based
[3] = target: Glycogen synthase kinase-3 beta (Homo sapiens, UniProt P49841)
Glycogen synthase kinase-3 beta (Homo sapiens, UniProt P49841), sequence (P49841 whole entry): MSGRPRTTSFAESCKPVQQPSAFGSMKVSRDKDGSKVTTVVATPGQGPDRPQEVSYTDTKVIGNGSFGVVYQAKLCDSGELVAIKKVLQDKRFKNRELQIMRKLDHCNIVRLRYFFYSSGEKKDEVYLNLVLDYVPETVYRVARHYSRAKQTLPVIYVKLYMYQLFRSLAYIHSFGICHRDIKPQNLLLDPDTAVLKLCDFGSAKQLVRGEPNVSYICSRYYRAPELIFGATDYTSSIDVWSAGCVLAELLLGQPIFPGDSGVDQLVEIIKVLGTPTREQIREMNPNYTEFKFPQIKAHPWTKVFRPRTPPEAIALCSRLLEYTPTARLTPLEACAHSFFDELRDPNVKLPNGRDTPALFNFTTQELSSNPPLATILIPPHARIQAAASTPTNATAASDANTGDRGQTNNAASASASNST
Description: Binding affinity for human glycogen synthase kinase 3 beta

Glycogen synthase kinase-3 beta (Rattus norvegicus, UniProt P18266), sequence (P18266 whole entry): as the sequence (P49841 whole entry) above, with V240M, T390P, T392A, A400T, T402A counted along it

IC50 [1] [nM]	EC50 [2] [nM]	IC50 [3] [nM]	Structure (SMILES)
10	1200		COc1cc(Nc2nccc(-c3cnn4ncccc34)n2)cc(C(F)(F)F)c1
190		50	Cc1ccc2c(-c3ccnc(Nc4ccc(C(F)(F)F)cc4)n3)cnn2n1
150		120	CCC(C)c1ccc(Nc2nccc(-c3cnn4ncccc34)n2)cc1 (stereo unspecified)
> 20000			COc1ccc(-c2nn3ncccc3c2-c2ccnc(Nc3ccccc3)n2)cc1
10			FC(F)(F)c1cc(Br)cc(Nc2nccc(-c3cnn4ncccc34)n2)c1
> 20000		> 20000	Fc1ccc(Nc2nccc(-c3c(C4CCCCC4)nn4ncccc34)n2)cc1F
	1800		Cc1cc(C)cc(Nc2nccc(-c3cnn4ncccc34)n2)c1
3980			c1ccc(Nc2nccc(-c3c(C4CC4)nn4ncccc34)n2)cc1
310	1000		Clc1cc(Cl)cc(Nc2nccc(-c3cnn4ncccc34)n2)c1
> 20000		80	COCCOc1cnn2ncc(-c3ccnc(Nc4cccc(OC)c4)n3)c2c1
> 20000			COc1ccc2c(-c3ccnc(Nc4cc(C(F)(F)F)cc(C(F)(F)F)c4)n3)cnn2n1
1260		790	CCCOc1ccc2c(-c3ccnc(Nc4cccc(C(F)(F)F)c4)n3)cnn2n1
6			c1cnn2ncc(-c3ccnc(Nc4ccc5c(c4)OCCCO5)n3)c2c1
160		50	COc1ccc2c(-c3ccnc(Nc4cccc(C(F)(F)F)c4)n3)cnn2n1
> 20000			Cc1ccc2c(-c3ccnc(Nc4ccc(Cl)c(C(F)(F)F)c4)n3)c(-c3cccc(C(F)(F)F)c3)nn2n1
> 20000		1000	FC(F)(F)c1cccc(-c2nn3ncccc3c2-c2ccnc(Nc3ccc(Cl)c(C(F)(F)F)c3)n2)c1
1990		190	CCOc1ccc2c(-c3ccnc(Nc4cccc(C(F)(F)F)c4)n3)cnn2n1 [GW811761X]
2500			FC(F)(F)c1cccc(Nc2nccc(-c3cnn4nc(-c5ccccc5)ccc34)n2)c1 [GW819077X]
10	1000		FC(F)(F)c1cc(Nc2nccc(-c3cnn4ncccc34)n2)ccc1Cl
> 20000			COc1ccc(-c2nn3ncccc3c2-c2ccnc(Nc3ccc(F)c(F)c3)n2)cc1 [GW827396X]
> 20000		> 31600	Cc1ccc2c(-c3ccnc(Nc4ccc5c(c4)OCCO5)n3)c(-c3ccc(C(F)(F)F)cc3)nn2n1 [GW832467X]

IC50 [1] [nM]	EC50 [2] [nM]	IC50 [3] [nM]	Structure (SMILES)
1	1000		Fc1cc(F)cc(Nc2nccc(-c3cnn4ncccc34)n2)c1
> 20000			c1ccc(-c2nn3ncccc3c2-c2ccnc(Nc3ccc4c(c3)OCCO4)n2)cc1
> 20000		790	Cc1ccc2c(-c3ccnc(Nc4ccccc4)n3)c(-c3cccc(C(F)(F)F)c3)nn2n1
50		< 10	Cc1ccc2c(-c3ccnc(Nc4cccc(C(F)(F)F)c4)n3)cnn2n1
	2900		c1ccc(Nc2nccc(-c3cnn4ncccc34)n2)cc1
> 20000		30	Cc1ccc2c(-c3ccnc(Nc4ccc5c(c4)OCCO5)n3)c(-c3ccccc3)nn2n1
1			N#Cc1ccc(Nc2nccc(-c3cnn4ncccc34)n2)cc1
> 20000		10	Cc1ccc2c(-c3ccnc(Nc4ccc5c(c4)OCCO5)n3)c(-c3ccc(F)cc3)nn2n1
3980	1600	10	c1ccc(Nc2nccc(-c3c(-c4ccccc4)nn4ncccc34)n2)cc1
> 20000	3400	30	Cc1ccc2c(-c3ccnc(Nc4ccc(F)c(F)c4)n3)c(-c3ccccc3)nn2n1
> 20000		> 31600	Fc1ccc(Nc2nccc(-c3c(-c4ccc(C(F)(F)F)cc4)nn4ncccc34)n2)cc1F [GW828529X]
50	1500	10	COc1ccc(Nc2nccc(-c3cnn4ncccc34)n2)cc1OC [PYRAZOLOPYRIDAZINE 2]
790		190	COc1cc(Nc2nccc(-c3cnn4nc(OC)ccc34)n2)cc(C(F)(F)F)c1
> 20000		20	Cc1ccc2c(-c3ccnc(Nc4ccccc4)n3)c(-c3ccc(F)cc3)nn2n1 [GW833373X]
> 20000		> 31600	FC(F)(F)c1ccc(-c2nn3ncccc3c2-c2ccnc(Nc3cccc(C(F)(F)F)c3)n2)cc1
> 20000		1000	Fc1ccc(Nc2nccc(-c3c(-c4ccc(Cl)cc4)nn4ncccc34)n2)cc1F
	800		c1cnn2ncc(-c3ccnc(Nc4ccc5c(c4)OCCO5)n3)c2c1 [GW806290X]
> 20000		20	FC(F)(F)c1cc(Nc2nccc(-c3c(-c4ccccc4)nn4ncccc34)n2)ccc1Cl
> 20000		50	Cc1ccc2c(-c3ccnc(Nc4ccc(Cl)c(C(F)(F)F)c4)n3)c(-c3ccc(F)cc3)nn2n1
> 20000		3160	CCOc1ccc2c(-c3ccnc(Nc4cc(OC)cc(C(F)(F)F)c4)n3)cnn2n1 [GW807982X]
> 20000			Fc1ccc(-c2nn3ncccc3c2-c2ccnc(Nc3ccc(F)c(F)c3)n2)cc1

IC50 [1] [nM]	EC50 [2] [nM]	IC50 [3] [nM]	Structure (SMILES)
> 20000		> 31600	FC(F)(F)c1ccc(-c2nn3ncccc3c2-c2ccnc(Nc3ccc(Cl)c(C(F)(F)F)c3)n2)cc1
> 20000		120	c1ccc(-c2ccc3c(-c4ccnc(Nc5ccc6c(c5)OCCO6)n4)cnn3n2)cc1
> 20000		20	Fc1ccc(-c2nn3ncccc3c2-c2ccnc(Nc3ccccc3)n2)cc1
> 20000			COc1ccc(-c2nn3ncccc3c2-c2ccnc(Nc3cccc(C(F)(F)F)c3)n2)cc1 [GW827105X]
> 20000			FC(F)(F)c1cccc(Nc2nccc(-c3c(-c4ccc(Cl)cc4)nn4ncccc34)n2)c1
> 20000			FC(F)(F)c1cc(Nc2nccc(-c3c(-c4ccc(Cl)cc4)nn4ncccc34)n2)ccc1Cl
> 20000			COc1ccc(-c2nn3ncccc3c2-c2ccnc(Nc3ccc(Cl)c(C(F)(F)F)c3)n2)cc1 [GW829115X]
> 20000		> 31600	Cc1ccc2c(-c3ccnc(Nc4ccccc4)n3)c(-c3ccc(C(F)(F)F)cc3)nn2n1
> 20000		10	Fc1ccc(-c2nn3ncccc3c2-c2ccnc(Nc3ccc4c(c3)OCCO4)n2)cc1 [GW827099X]
> 20000		10	Fc1cc(F)cc(Nc2nccc(-c3c(-c4ccccc4)nn4ncccc34)n2)c1
1		10	Clc1ccc(Nc2nccc(-c3cnn4ncccc34)n2)cc1Cl
100		30	COc1ccc2c(-c3ccnc(Nc4ccc5c(c4)OCCO5)n3)cnn2n1
500		50	COc1ccc2c(-c3ccnc(Nc4ccc(C#N)cc4)n3)cnn2n1
> 20000			Clc1ccc(-c2nn3ncccc3c2-c2ccnc(Nc3ccccc3)n2)cc1 [GW829055X]
> 20000		10	Cc1ccc2c(-c3ccnc(Nc4ccc(F)c(F)c4)n3)c(-c3ccc(F)cc3)nn2n1
60		100	COc1cccc(Nc2nccc(-c3cnn4nc(OC)ccc34)n2)c1
20		10	COc1cc(Nc2nccc(-c3cnn4nc(C)ccc34)n2)cc(C(F)(F)F)c1
> 20000	2800	20	Fc1ccc(-c2nn3ncccc3c2-c2ccnc(Nc3cccc(C(F)(F)F)c3)n2)cc1
6		10	Cc1ccc2c(-c3ccnc(Nc4ccc5c(c4)OCCO5)n3)cnn2n1
> 20000		150	FC(F)(F)c1cccc(-c2nn3ncccc3c2-c2ccnc(Nc3ccccc3)n2)c1
20		70	COc1ccc2c(-c3ccnc(Nc4ccc([N+](=O)[O-])cc4)n3)cnn2n1

IC50 [1] [nM]	EC50 [2] [nM]	IC50 [3] [nM]	Structure (SMILES)
	1300		COc1cccc(Nc2nccc(-c3cnn4ncccc34)n2)c1 [PYRAZOLOPYRIDAZINE 1]
190		120	COc1cc(Nc2nccc(-c3cnn4nc(OC)ccc34)n2)cc(OC)c1
> 20000		100	Cc1ccc2c(-c3ccnc(Nc4ccc(Cl)c(C(F)(F)F)c4)n3)c(-c3ccccc3)nn2n1
> 20000		40	Fc1ccc(-c2nn3ncccc3c2-c2ccnc(Nc3ccc(Cl)c(C(F)(F)F)c3)n2)cc1
> 20000	2100	10	FC(F)(F)c1cccc(Nc2nccc(-c3c(-c4ccccc4)nn4ncccc34)n2)c1
> 20000		> 31600	FC(F)(F)c1ccc(-c2nn3ncccc3c2-c2ccnc(Nc3ccc4c(c3)OCCO4)n2)cc1 [GW828525X]
> 20000			Cc1ccc2c(-c3ccnc(Nc4ccc(F)c(F)c4)n3)c(-c3cccc(C(F)(F)F)c3)nn2n1
> 20000		> 20000	c1ccc(Nc2nccc(-c3c(C4CCCCC4)nn4ncccc34)n2)cc1
> 20000		790	Clc1ccc(-c2nn3ncccc3c2-c2ccnc(Nc3ccc4c(c3)OCCO4)n2)cc1
> 20000	4200	10	Fc1ccc(Nc2nccc(-c3c(-c4ccccc4)nn4ncccc34)n2)cc1F
> 20000	6800	20	Cc1ccc2c(-c3ccnc(Nc4cccc(C(F)(F)F)c4)n3)c(-c3ccc(F)cc3)nn2n1
10			c1cnn2ncc(-c3ccnc(Nc4ccc5c(c4)OCO5)n3)c2c1
> 20000		310	Fc1ccc(Nc2nccc(-c3c(-c4cccc(C(F)(F)F)c4)nn4ncccc34)n2)cc1F
10		30	CC(C)c1ccc(Nc2nccc(-c3cnn4ncccc34)n2)cc1 [GW805758X]
20			O=[N+]([O-])c1ccc(Nc2nccc(-c3cnn4ncccc34)n2)cc1
5000		150	Cc1ccc2c(-c3ccnc(Nc4ccc5c(c4)OCCO5)n3)c(-c3cccc(C(F)(F)F)c3)nn2n1
8		10	Oc1ccc2c(-c3ccnc(Nc4cccc(C(F)(F)F)c4)n3)cnn2n1
	3600	50	Cc1ccc2c(-c3ccnc(Nc4ccccc4)n3)c(-c3ccccc3)nn2n1
